Literature values, collected in patent US10548837B1, “Topical montelukast for treatment of atopic dermatitis” (TARO PHARMACEUTICAL INDUSTRIES LTD., priority 2016, dated 2020).

Target: T1, cysLT1 receptor (Homo sapiens, UniProt Q9Y271)
T1 sequence (Q9Y271 1-337): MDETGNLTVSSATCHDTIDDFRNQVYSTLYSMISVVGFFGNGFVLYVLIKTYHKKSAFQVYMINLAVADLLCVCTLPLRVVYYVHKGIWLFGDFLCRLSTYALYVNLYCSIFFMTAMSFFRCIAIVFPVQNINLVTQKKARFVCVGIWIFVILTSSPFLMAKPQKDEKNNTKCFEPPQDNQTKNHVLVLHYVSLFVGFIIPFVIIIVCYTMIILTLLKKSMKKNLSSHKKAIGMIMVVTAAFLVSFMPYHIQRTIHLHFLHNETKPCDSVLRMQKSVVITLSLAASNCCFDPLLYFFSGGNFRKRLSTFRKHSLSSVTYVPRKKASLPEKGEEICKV
Conditions: background statement

COc1cc(C(=O)NS(=O)(=O)c2ccccc2C)ccc1Cc1cn(C)c2ccc(NC(=O)OC3CCCC3)cc12 [zafirlukast]
binding to the cysLT1 receptor: high-affinity binding
